# A melting point compilation (Tetko et al.)
row,Structure (SMILES),melting point
1,CC(C)Nc1ccc(C(=O)O)cn1,249 to 251 °C
2,CC(C)(C)OC(=O)Nc1ccc(C(=O)O)cc1O,179 to 181 °C
3,Cc1ccccc1-c1nonc1N,88 to 90 °C
4,O=C(O)CCCNc1ccc(C(F)(F)F)cn1,91 to 93 °C
5,O=C(O)CCN1C(=O)CCc2ccccc21,157 to 159 °C
6,CN(C)C(=N)CC#N,79 to 81 °C
7,Nc1ccc(Cl)nc1C(=O)O,219 to 221 °C
8,Cc1cccc(NC(=O)C(Br)C(C)C)c1C (stereo unspecified),150 to 152 °C
9,Nc1ccc(C(=O)N2CCCC2)c(F)c1,139 to 141 °C
10,O=C1CCC2(CCN1)OCCO2,101 to 103 °C
11,CN(C)c1ccc(C#N)cc1F,34 to 36 °C
12,O=C(O)c1ccc2c(=O)n3c(nc2c1)CCC3,354 to 356 °C
13,N#CCc1ccc(-n2cccn2)cc1,127 to 129 °C
14,O=S1(=O)CCC(Cl)CC1,129 to 131 °C
15,CC(C)CC(=O)Nc1ccccc1C(=O)O,121 to 123 °C
16,CC(Cl)C(=O)NC1CC1 (stereo unspecified),67 to 71 °C
17,COC(=O)c1scnc1C1CC1,59 to 61 °C
18,Cc1c(N)cccc1NC(=O)c1ccccc1I,198 to 200 °C
19,O=C(CCl)NC(=O)NCC(F)(F)F,154 to 156 °C
20,NNS(=O)(=O)c1ccccc1[N+](=O)[O-],89 to 91 °C
21,CCS(=O)(=O)c1cc(F)ccc1N,43 to 45 °C
22,Cc1cc(C(=O)CCl)c(C)cc1Br,79 to 81 °C

row,Structure (SMILES),melting point
1,Cc1csc(=O)n1CCCC(=O)O,97 to 99 °C
2,Clc1cn2ccccc2n1,72 to 74 °C
3,Nn1cnnc1-c1ccccc1,115 to 117 °C
4,NC(=NO)c1ccsc1,66 to 68 °C
5,Nc1cc(-c2ccco2)nn1-c1ccc(F)cc1F,120 to 122 °C
6,O=C(O)CCn1cc(Br)cn1,112 to 114 °C
7,CNc1ncnc2ccsc12,179 to 181 °C
8,O=C(CCl)Nc1ccc2c(c1)C(=O)c1ccccc1C2=O,298 to 300 °C
9,N#CCc1cc(Cl)c2c(c1)OCCO2,102 to 104 °C
10,O=C(O)c1csc(-c2ncccn2)n1,217 to 219 °C
11,CC(NC(=O)CCl)c1cccs1 (stereo unspecified),92 to 94 °C
12,CC(C)(C)NS(=O)(=O)c1ccc(NN)nc1,124 to 126 °C
13,NC(=O)NCCCCCC(=O)O,175 to 177 °C
14,Cc1cc(NC(N)=S)n(C)n1,218 to 220 °C
15,CN(C)S(=O)(=O)c1ccc(=O)[nH]c1,212 to 216 °C
16,Cc1[nH]c(C(=O)O)c(C)c1C,80 to 82 °C
17,CCNS(=O)(=O)c1ccc(/C=C/C(=O)O)cc1,248 to 250 °C
18,CC(=O)CC(=O)c1cnn(C)c1,88 to 90 °C
19,O=C(O)c1cc([N+](=O)[O-])ccc1SCCO,163 to 165 °C
20,O=C(O)C(=O)NNc1ccc(Cl)cc1Cl,169 to 171 °C
21,NC(=O)NC1CCCC1,192 to 194 °C
22,C[C@H](NC(=O)C1CCCCC1)C(=O)O,127 to 129 °C

row,Structure (SMILES),melting point
1,CN1C(=O)CC(C(N)=O)C1c1cccc(Cl)c1 (stereo unspecified),188 to 190 °C
2,CN1C(=C(C#N)C(=O)CCl)Nc2ccccc21,244 to 246 °C
3,O=C(c1cc2cc(Br)ccc2o1)c1cccs1,88 to 90 °C
4,BrCc1cc(Br)cc2cccnc12,140 to 142 °C
5,CCOC(=O)COc1ccc(S(C)(=O)=O)cc1[N+](=O)[O-],131 to 133 °C
6,O=C(O)CCc1c(-c2ccccc2)[nH]c2ccc(F)cc12,161 to 163 °C
7,CN1CCN(S(=O)(=O)c2ccc(Cl)nc2)CC1,129 to 131 °C
8,Cc1csc(SCc2ccccc2C(=O)O)n1,159 to 162 °C
9,CC(Cl)C(=O)Nc1c(Cl)cc(Cl)cc1Cl (stereo unspecified),153 to 155 °C
10,NCc1nc2cc(Cl)ccc2s1,68 to 70 °C
11,O=C(O)C1CSCN1C(=O)c1ccc(Cl)cc1 (stereo unspecified),60 to 62 °C
12,Sc1ncccc1Cl,204 to 206 °C
13,CN(Cc1ccccc1)c1ccc([N+](=O)[O-])cn1,56 to 58 °C
14,Cc1nn(-c2ccccc2)c(C)c1NC(=O)CCl,149 to 151 °C
15,COCCOc1ccc(Cl)cc1C(=O)O,68 to 70 °C
16,Cc1nn(CCCl)c(C)c1C=O,49 to 51 °C
17,O=S(=O)(Cl)c1cc(Cl)c(Br)s1,61 to 63 °C
18,O=Cc1cnn(-c2ccc(F)cc2)c1,120 to 122 °C
19,Cc1cs/c(=N\c2ccccc2)n1C1CCCC1,51 to 53 °C
20,COC(=O)Nc1ccc(CO)cc1,79 to 81 °C
21,CN(c1ccccc1)c1ccc(C=O)cc1[N+](=O)[O-],95 to 97 °C
22,CS(=O)(=O)CCCOc1cccc2c1CCC2O (stereo unspecified),77 to 79 °C

# Now from value to compound:
row,melting point,Structure (SMILES)
1,236 to 238 °C,CCS(=O)(=O)Nc1ccc(C(=O)O)cn1
2,93 to 95 °C,CC(=O)c1ccc(-c2ccncc2)cc1
3,225 to 227 °C,O=C(O)c1cc(=O)n(-c2ccc([N+](=O)[O-])cc2)[nH]1
4,143 to 145 °C,Cn1c(=O)c2c(S)nc(C(C)(C)C)nc2n(C)c1=O
5,222 to 224 °C,O=C(O)c1cccc(CSc2c(Cl)cccc2Cl)c1
6,210 to 212 °C,Cc1c[nH]c(=O)n1-c1ccccc1
7,173 to 175 °C,Nc1nc(Cl)c(C=O)c(N2CCOCC2)n1
8,63 to 65 °C,Cc1cc(N)nn1-c1ccccc1Cl
9,167 to 169 °C,CC1CCCN1CC(=O)O (stereo unspecified)
10,35 to 37 °C,COc1ccccc1NS(=O)(=O)c1cccc(N)c1
11,144 to 146 °C,Cc1ccc(NC(=O)C2CCCNC2)nc1 (stereo unspecified)
12,109 to 111 °C,Cc1ccccc1N(CC(=O)O)S(C)(=O)=O
13,84 to 86 °C,CC(C)c1nc(I)c2ccccn12
14,119 to 121 °C,O=C(O)C=CSCc1ccco1
15,199 to 201 °C,NC(CSCc1cccc2ccccc12)C(=O)O (stereo unspecified)
16,180 to 182 °C,Cc1[nH]c2ccc(F)cc2c1CC(=O)O
17,209 to 211 °C,O=C(O)c1ccc(NS(=O)(=O)c2ccccc2)cc1
18,90 to 94 °C,N#CCC(=O)NCC1CCCO1 (stereo unspecified)
19,234 to 236 °C,Cc1ccc(-n2c(S)nnc2-c2ccccn2)c(C)c1
20,229 to 231 °C,COc1ccc(CC(=O)NCc2ccc(C(=O)O)cc2)cc1
21,100 to 102 °C,CCOC(=O)CCc1nnc(-c2ccc(Cl)cc2)o1
22,259 to 261 °C,CC(C)(C)OC(=O)c1cc(C(=O)O)nn1-c1ccccc1
23,47 to 49 °C,Nc1cc(F)c(F)cc1Br
24,87 to 89 °C,Cc1ccc([N+](=O)[O-])c2cccnc12
25,216 to 218 °C,COc1ccc(CCc2nnc(N)o2)cc1
26,238 to 240 °C,COc1ccc(-c2n[nH]c(=O)c3ccccc23)cc1
27,48 to 50 °C,CCCCCC(C)CNC(=S)NN (stereo unspecified)

row,melting point,Structure (SMILES)
1,73 to 75 °C,Nc1ccc(OCCO)cc1C(F)(F)F
2,197 to 199 °C,O=C(O)CCc1nnc(-c2cccnc2)o1
3,97 to 99 °C,Nc1ncc(Cc2ccccc2F)s1
4,101 to 103 °C,COC(=O)C(=O)CC(=O)c1ccc(OC)cc1F
5,132 to 134 °C,CC(N)c1ccc(NC(N)=O)cc1 (stereo unspecified)
6,156 to 158 °C,CCOC(=O)Cc1nnc(N)s1
7,77 to 79 °C,Fc1cc(CCl)c2c(c1)COC(c1ccsc1)O2 (stereo unspecified)
8,146 to 148 °C,N#CCC(=O)NN1CCCCC1=O
9,93 to 95 °C,Nc1ccc(F)c(-n2nnnc2C2CC2)c1
10,211 to 213 °C,NNc1ncnc2sccc12
11,236 to 238 °C,O=C(O)c1sccc1S(=O)(=O)Nc1cccc2cn[nH]c12
12,168 to 170 °C,O=C(CBr)c1cc2cc(Cl)ccc2o1
13,132 to 134 °C,CC(C)(C)C(=O)Nc1ccc(Cl)c(C(F)(F)F)c1
14,153 to 155 °C,O=C(O)CCc1nnc(-c2cc(F)ccc2Br)o1
15,162 to 164 °C,CNc1ccc(C)nn1
16,174 to 176 °C,Nc1ccccc1C(=O)NC1CCCC1
17,67 to 69 °C,COC(=O)c1cc(I)cc(S(=O)(=O)Cl)c1
18,82 to 84 °C,CC(Cl)C(=O)N(c1nccs1)C1CCCCC1 (stereo unspecified)
19,109 to 111 °C,CCOC(=O)c1nnc(C)n1C1CC1
20,145 to 147 °C,CC(=O)Nc1cc(C#N)ccc1S(C)(=O)=O
21,145 to 147 °C,O=C(O)Cc1ccc(C(F)(F)F)cc1[N+](=O)[O-]
22,107 to 111 °C,NC(=S)COc1ccc(Cl)cc1
23,211 to 213 °C,COc1cc(C=CC(=O)O)ccc1F
24,87 to 89 °C,ClCc1nc(-c2cccnc2)no1
25,129 to 131 °C,CC(C)(C)OC(=O)N1CC(=O)NC(=O)C1
26,193 to 195 °C,O=C(CCl)NC(c1ccccc1)c1ccc2[nH]c(C(F)(F)F)nc2c1 (stereo unspecified)
27,115 to 117 °C,Cc1ccc(C(=O)N(C)c2ccc(O)cc2)cc1

row,melting point,Structure (SMILES)
1,62 to 64 °C,O=C1CCC(C(=O)O)CC1
2,63 to 65 °C,OC(CCl)CNCc1ccccc1 (stereo unspecified)
3,115 to 117 °C,CC(NC(=O)CC#N)c1ccccc1 (stereo unspecified)
4,64 to 66 °C,Nc1cccc(-c2ccc3c(c2)CCO3)c1
5,97 to 99 °C,CCOc1ccccc1OCCC(=O)O
6,129 to 131 °C,COc1ncc(Br)cc1CC(=O)O
7,156 to 158 °C,COc1cccc(-c2nc(CC(=O)O)cs2)c1OC
8,279 to 281 °C,Cc1cc(C(=O)O)ccc1N1CCNC1=O
9,109 to 111 °C,CC(C)(C)OC(=O)N1CC(CC(=O)O)C1
10,170 to 172 °C,CC1(C2CC2)NC(=O)N(CC(=O)O)C1=O (stereo unspecified)
11,86 to 88 °C,Cc1ccc(-c2nnc(C(C)Cl)o2)cc1C (stereo unspecified)
12,129 to 131 °C,CC(=O)NCc1ccc(C(C)=O)s1
13,289 to 291 °C,Cc1c[nH]c(=O)n1-c1cccc(C(=O)O)c1
14,24 to 26 °C,CCC(=O)NN
15,92 to 94 °C,CCOC(=O)c1cccnc1S(N)(=O)=O
16,146 to 148 °C,NC(=O)CC1CCNCC1
17,239 to 241 °C,Cn1cc(C#N)c(=O)[nH]c1=O
18,200 to 202 °C,Sc1nnc(-c2ccccc2Br)o1
19,174 to 176 °C,CCOC(=O)c1ccc(N2C(=O)Cc3ccccc3C2=O)cc1
20,271 to 273 °C,Cc1ccc(CNc2ccc3[nH]c(=O)[nH]c3c2)cc1
21,243 to 245 °C,COc1ccccc1-c1nnc(S)o1
22,222 to 224 °C,O=C1NC(=O)C2(CCC2)N1
23,170 to 172 °C,CN(C(=O)c1cccc(C(=O)O)c1)c1ccccc1
24,87 to 89 °C,CC(O)c1ccc(CN)cc1 (stereo unspecified)
25,146 to 148 °C,CS(=O)(=O)c1ccc(C#N)cc1F
26,32 to 34 °C,CN(C)C(=O)CO
